Results reported in US11292758B2, “Compounds and methods for delivery of prostacyclin analogs” (United Therapeutics Corporation, priority 2003, dated 2022).

Assays:
[1] = Treprostinil plasma concentrations in rats after a single oral dose of prodrugs (Example 2); format: in vivo, male Sprague-Dawley rats; settings: rat; for Treprostinil AUC compared with dosing the active compound: oral; for adverse reactions following oral administration: single oral dose
Procedure: In this Example, Treprostinil concentrations were determined in male Sprague-Dawley rats following a single oral dose of the following compounds:
A solution of treprostinil methyl ester was prepared by dissolving 2.21 mg of treprostinil methyl ester with 0.85 mL of dimethylacetamide (DMA). […] The final concentration of the dosing vehicle was 0.26 mg/mL of treprostinil methyl ester equivalent to 0.25 mg/mL of Treprostinil.
A solution of treprostinil benzyl ester was prepared by dissolving 2.58 mg of treprostinil benzyl ester with 0.84 mL of dimethylacetamide (DMA). […] The final concentration of the dosing vehicle was 0.268 mg/mL of treprostinil benzyl ester equivalent to 0.25 mg/mL of Treprostinil.
A solution of treprostinil diglycine was prepared by dissolving 1.86 mg of compound with 0.58 mL of dimethylacetamide (DMA). […] The final concentration of the dosing vehicle was 0.323 mg/mL of treprostinil diglycine equivalent to 0.25 mg/mL of Treprostinil.
Groups I-III were dosed on the same day.
Animals were dosed via oral gavage.
Plasma samples were analyzed as described in Example 1. In brief, Treprostinil was extracted from the plasma via liquid-liquid extraction then analyzed by LC/MS/MS. The analytical validation results were reported previously in Example 1. […] Samples were not assayed for unchanged prodrug.

[2] = Moisture sorption / hygroscopicity of treprostinil diethanolamine polymorphs; format: physicochemical; settings: for weight gain in humidity chamber: 23 days
Procedure: The initial material synthesized (termed Form A) was characterized using X-ray powder diffraction (XRPD), differential scanning calorimetry (DSC), thermogravimetry (TG), hot stage microscopy, infrared (IR) and Raman spectroscopy, and moisture sorption. The IR and Raman spectra for Form A are shown in FIGS. 16 and 17, respectively. […] The moisture sorption data are shown graphically in FIG. 19. […] In addition, hygroscopicity of treprostinil diethanolamine was evaluated in humidity chambers at approximately 52% RH and 68% RH. […] Upon desorption from 95% down to 5% RH, the sample loses approximately 47%.

[3] = slurry inter-conversion in isopropanol and tetrahydrofuran
From the text: Form A is made according to the methods in Table 15. Form B is made from Form A, in accordance with the procedures of Table 16.

[4] = Treprostinil plasma concentrations in rats after a single intraduodenal dose of prodrugs (Example 3); settings: rat; for Tmax (of Treprostinil) / Maximum Treprostinil concentrations: intraduodenal; for adverse reactions following intraduodenal administration: single intraduodenal dose; for Maximum Treprostinil concentrations: 5 minutes post-dosing
From the text: This example illustrates a pharmacokinetic study of treprostinil following administration of a single duodenal dose of treprostinil and various prodrugs of the present invention.
In this study, the area under the curve of Treprostinil in male Sprague-Dawley rats following a single intraduodenal dose of treprostinil monophosphate (ring), treprostinil monovaline (ring), treprostinil monoalanine (ring) or treprostinil monoalanine (chain), prodrugs of treprostinil was compared. The compounds were as follows:
This solution was further diluted with 1.50 mL of PEG 400:Polysorbate 80:Water, 40:1:49.
A 50 mg/mL solution of treprostinil monovaline (ring) was prepared in dimethylacetamide (DMA). A 25 μL aliquot of the 50 mg/mL stock solution was then diluted with 175 μL of DMA and 1.8 mL of PEG 400:Polysorbate 80:Water, 40:1:49.
This solution was further diluted with 1.60 mL of PEG 400:polysorbate 80:Water, 40:1:49. The final concentration of the dosing vehicle was 0.590 mg/mL of treprostinil monoalanine (ring) equivalent to 0.5 mg/mL of Treprostinil.
A solution of treprostinil monoalanine (chain) was prepared by dissolving 0.83 mg of treprostinil monoalanine (chain) in 0.14 mL of dimethylacetamide (DMA) until dissolved. This solution was further diluted with 1.26 mL of PEG 400:Polysorbate 80:Water, 40:1:49.
The plasma concentrations of Treprostinil following […] of each prodrug were evaluated in male Sprague-Dawley rats. […] All groups were dosed on day 1 of the study.
Animals were dosed via an indwelling duodenal cannula.
The blood samples were withdrawn and placed into tubes containing 30 μL of a solution of 500 units per mL of heparin in saline, and centrifuged at 13,000 rpm for 10 minutes. Approximately 200 μL of plasma was then removed and dispensed into appropriately labeled polypropylene tubes containing 4 μL of acetic acid in order to stabilize any prodrug remaining in the samples. The plasma samples were frozen at −20° C. and were transported on ice to Absorption Systems Exton Facility. There they were stored in a −80° C. freezer pending analysis.
Plasma samples were analyzed using the methods described above. In brief, Treprostinil was extracted from the plasma via solid phase extraction then analyzed by LC/MS/MS. The lower limit of quantification (LLOQ) of the analytical method was 0.03 ng/mL.
Pharmacokinetic analysis was performed on the plasma concentration of Treprostinil for each individual rat at each time point and on the average plasma concentration for all three rats in the group for each time point.
The following formula was used to determine relative bioavailability (F): Relative F=(AUC(Prodrug Dose)/Dose)/(AUC(Treprostinil Dose)/Dose)*100

[5] = subcutaneous infusion; cited from earlier work
[6] = Clinical Study 01-101: escalating doses of UT-15C oral solution; settings: for mean absolute bioavailability: based on historical intravenous treprostinil sodium data
Procedure: Prior to proceeding directly into clinical studies with a sustained release (SR) solid dosage form of UT-15C (treprostinil diethanolamine), a determination of the pharmacokinetics of an oral “immediate release” solution was performed.
A Safety, Tolerability, and Pharmacokinetic Study of Multiple Escalating Doses of UT-15C (Treprostinil Diethanolamine) Administered as an Oral Solution in Healthy Adult Volunteers (Including Study of Bioavailability).
Study endpoints included standard safety assessments (adverse events, vital signs, laboratory parameters, physical examinations, and electrocardiograms) as well as pharmacokinetic parameters.

## CCCCC[C@H](CC[C@@H]1C2Cc3cccc(OCC(=O)O)c3CC2C[C@H]1OC(=O)CN)OC(=O)CN (some centres unmarked) [Treprostinil diglycine, Bis-Glycyl Ester of Treprostinil]
[1]
  Treprostinil AUC compared with dosing the active compound: greater than that after dosing of the active compound
  adverse reactions following oral administration: No adverse reactions were observed

## CCCCC[C@H](O)CC[C@@H]1[C@H]2Cc3cccc(OCC(=O)O)c3C[C@H]2C[C@H]1O.OCCNCCO [Form A]
[2]
  hygroscopicity: hygroscopic
[2]; beginning between 65 to 75% RH
  weight gain during moisture sorption: > 33%
[3]
  thermodynamic stability of the crystal form: metastable

## CCCCC[C@H](O)CC[C@@H]1[C@H]2Cc3cccc(OCC(=O)O)c3C[C@H]2C[C@H]1O.OCCNCCO [Form B]
[2]; 5% RH
  weight loss in moisture sorption: minimal weight loss
[2]; 95% RH
  water absorbed: approximately 49%
[2]; from 95% down to 5% RH
  loss upon desorption: approximately 47%

## CCCCCC(O)CCC1C(OC(=O)C(C)N)CC2Cc3c(cccc3OCC(=O)O)CC21 [treprostinil monoalanine (ring), 2-L-Alanine Ester of Treprostinil]
[4]
  Tmax (of Treprostinil): 60 min
  adverse reactions following intraduodenal administration: No adverse reactions were observed

## CCCCC[C@H](O)CC[C@@H]1[C@H]2Cc3cccc(OCC(=O)[O-])c3C[C@H]2C[C@H]1O.[Na+] [treprostinil sodium, (1R,2R,3aS,9aS)-[[2,3,3a,4,9,9a-Hexahydro-2-hydroxy-1-[(3S)-3-hydroxyoctyl]-1H-benz[f]inden-5-yl]oxy]acetic acid monosodium salt]
[5]
  absolute bioavailability: ~100%

## CCCCCC(O)CCC1C(OP(=O)(O)O)CC2Cc3c(cccc3OCC(=O)O)CC21 (centres unmarked) [treprostinil monophosphate (ring), 2-Monophosphate Ester of Treprostinil]
[4]
  Tmax (of Treprostinil): 5 min
  Maximum Treprostinil concentrations: approximately 9 ng/mL
  adverse reactions following intraduodenal administration: No adverse reactions were observed

## CCCCC[C@H](O)CC[C@@H]1[C@H]2Cc3cccc(OCC(=O)OC)c3C[C@H]2C[C@H]1O [Treprostinil methyl ester, Methyl Ester of Treprostinil]
[1]
  Treprostinil AUC compared with dosing the active compound: less than that after dosing the active compound
  adverse reactions following oral administration: No adverse reactions were observed

## CCCCC[C@@H](CC[C@@H]1[C@H]2Cc3cccc(OCC(=O)O)c3C[C@H]2C[C@H]1O)OC(=O)[C@H](C)N [treprostinil monoalanine (chain), 3′-L-Alanyl Ester of Treprostinil]
[4]
  Tmax (of Treprostinil): 5 min
  Maximum Treprostinil concentrations: approximately 9 ng/mL
  adverse reactions following intraduodenal administration: No adverse reactions were observed

## CCCCC[C@H](O)CC[C@@H]1[C@H]2Cc3cccc(OCC(=O)O)c3C[C@H]2C[C@H]1O.OCCNCCO [UT-15C, Treprostinil Diethanolamine]
[6]
  Treprostinil plasma concentrations detectable: detectable in all subjects
  changes in hematology, clinical chemistry, urinalysis, vital signs, physical exams, and ECGs: no clinically significant, treatment emergent changes
  most frequently reported adverse events: flushing, headache, and dizziness
[6]; 0.2 mg total dose
  mean absolute bioavailability: 21%
[6]; 0.5 mg total dose
  mean absolute bioavailability: 23%
[6]; 1.0 mg total dose
  mean absolute bioavailability: 24%
[6]; 2.0 mg total dose
  mean absolute bioavailability: 25%
[6]; after the third dose aliquot of the 2.0 mg total dose
  highest (treprostinil plasma) concentration observed: 5.51 ng/mL
[6]; all doses given
  tolerability: well tolerated by the majority of subjects
[6]; each of the four dose aliquots
  AUCinf and Cmax versus dose: increased in a linear fashion with dose
[2]; ~52% RH
  weight gain in humidity chamber: 4.9%
[2]; ~68% RH
  weight gain in humidity chamber: 28%

## CCCCC[C@@H](O)CC[C@@H]1C2Cc3cccc(OCC(=O)OCc4ccccc4)c3CC2C[C@H]1O (some centres unmarked) [Treprostinil benzyl ester, Benzyl Ester of Treprostinil]
[1]
  Treprostinil AUC compared with dosing the active compound: greater than that after dosing of the active compound
  adverse reactions following oral administration: No adverse reactions were observed

## CCCCCC(O)CCC1C(OC(=O)C(N)C(C)C)CC2Cc3c(cccc3OCC(=O)O)CC21 [treprostinil monovaline (ring), 2-L-Valine Ester of Treprostinil]
[4]
  Tmax (of Treprostinil): 120 min
  adverse reactions following intraduodenal administration: No adverse reactions were observed
